We go through 25 compounds from publication PMC7904559, “QSAR and molecular docking for the search of AOX inhibitors: a rational drug discovery approach” (Journal of Computer-Aided Molecular Design, 2020).

Where two headings read alike, the source gives them in different places.

In series [1] the target is trypanosome alternative oxidase (TAO) (Trypanosoma brucei brucei, UniProt Q26710). Briefly: biochemical.
For series [2], the system named is cytochrome bc1 complex. The conditions noted are these: cited from earlier work.
On the set-up of series [3]: method as in PMID 30693533. Particulars: cited from earlier work.
Series [4] relates to T. vivax. Particulars: T. vivax-infected mouse; single intramuscular dose of 50 mg/kg or 6 mg/kg on 4 consecutive days; cited from earlier work.
Series [5] has as its target alternative oxidase of Trypanosoma brucei (TAO). Particulars: cited from earlier work; for pIC50 Exp.: training set, calculated as -log IC50.
The mark [6] stands for this setting: IC50, recombinant AOX expressed in E. coli membranes, mean ± SD of n = 3 isolations, 37 °C, pH 7.4, 1.25 mM NADH, 1 mM KCN.
[7] abbreviates: pIC50 Exp, external validation set, -log IC50 of values measured by respirometry.
The mark [8] stands for this setting: wild type TAO, Table 2, read-out: IC50.
[9] abbreviates: read-out: IC50 (50% inhibitory concentration), against TAO.

trypanosome alternative oxidase (TAO), sequence (Q26710 whole entry): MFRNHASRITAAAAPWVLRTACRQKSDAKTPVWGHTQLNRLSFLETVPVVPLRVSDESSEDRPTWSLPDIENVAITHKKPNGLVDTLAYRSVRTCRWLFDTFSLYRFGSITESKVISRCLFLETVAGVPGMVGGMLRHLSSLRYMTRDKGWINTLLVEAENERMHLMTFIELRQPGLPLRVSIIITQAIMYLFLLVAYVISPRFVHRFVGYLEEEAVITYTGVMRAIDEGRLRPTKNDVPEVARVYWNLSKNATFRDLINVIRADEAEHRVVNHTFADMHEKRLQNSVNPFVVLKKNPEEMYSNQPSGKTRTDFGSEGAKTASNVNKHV

Consider `CC(/C=C/[C@@]1(C)[C@H](C)CCC(=O)[C@@H]1C)=C\Cc1c(O)c(Cl)c(C)c(C=O)c1O` [Ascochlorin], for which the IC50 was ~7 nM in series [1] (setting [6]) and 7.4 nM in series [1] (setting [7]). In addition, the “inhibition of cytochrome bc1 complex” value in series [2] is “potent inhibitor”. Regarding `C/C(=C\Cc1c(O)c(Cl)c(C)c(C=O)c1O)CC/C=C(\C)[C@@H]1CC(=O)C(C)(C)O1` [Ascofuranone], the “inhibition of mammalian cytochrome bc1 complex” value in series [2] (mammalian, concluded from survival of mice following AF treatment) is listed as “not an effective inhibitor”. Further, in series [3], the blood clearance result is “rapid” and the oral bioavailability entry is listed as “low”. Also, the treatment outcome in series [4] is “successful treatment”.

Regarding `CC(C)=CCC/C(C)=C/Cc1c(O)c(Cl)c(C)c(C=O)c1O` [Colletochlorin B], the IC50 in series [5] (setting [8]) is 0.2 nM.

As for `CC(C)=CCc1c(O)c(Cl)c(C)c(C=O)c1O` [Colletochlorin D], in series [1] (setting [7]), the IC50 was 33 nM. Turning to `C/C(=C\Cc1c(O)c(Cl)c(C)c(C=O)c1O)CC/C=C(\C)COC(=O)C(C)(C)C` [Compound 1], in series [5] (setting [9]), the IC50 was 0.4 nM. In addition, in series [5], the “pIC50 Exp.” value is 9.398. Take `C/C(=C\CC/C(C)=C/Cc1c(O)c(Cl)c(C)c(C=O)c1O)CO` [Compound 2]: the IC50 in series [5] (setting [9]) was 1.2 nM. Moreover, the “pIC50 Exp.” value in series [5] is listed as 8.921. Take `CC(=O)OC(C)/C(C)=C/CC/C(C)=C/Cc1c(O)c(Cl)c(C)c(C=O)c1O` (stereo not shown) [Compound 3]: the IC50 in series [5] (setting [9]) is 1.4 nM. The “pIC50 Exp.” value in series [5] is 8.854. Take `C/C=C/c1c(O)c(Cl)c(C)c(C=O)c1O` [Compound 7a]: the “pIC50 Exp.” value in series [5] is recorded as 7.000.

As to `CCC/C=C/c1c(O)c(Cl)c(C)c(C=O)c1O` [Compound 7b], the IC50 in series [5] (setting [9]) is 3.8 nM. Besides, the “pIC50 Exp.” value in series [5] is listed as 8.420.

Consider `Cc1c(Cl)c(O)c(CCCCCCCCO)c(O)c1C=O` [Compound 11], for which the IC50 in series [5] (setting [9]) is 6 nM. In addition, the “pIC50 Exp.” value in series [5] was 8.222. Regarding `Cc1c(Cl)c(O)c(CCCCCCCC(=O)O)c(O)c1C=O` [Compound 12], the IC50 in series [5] (setting [9]) was 40 nM. Besides, the “pIC50 Exp.” value in series [5] was 7.398. On to `CC(=O)c1c(C)c(Cl)c(O)c(C/C=C(\C)CC/C=C(\C)C2CC(=O)C(C)(C)O2)c1O` (stereo not shown) [Compound 14], for which the IC50 in series [5] (setting [9]) is 2.5 nM. Also, the “pIC50 Exp.” value in series [5] is 8.602. As to `CC(=O)c1c(C)c(Cl)c(O)c(C/C=C(\C)CC/C=C(\C)COC(=O)C(C)(C)C)c1O` [Compound 15], the IC50 in series [5] (setting [9]) was 0.7 nM. Moreover, the “pIC50 Exp.” value in series [5] is listed as 9.155. Consider `CC(=O)c1c(C)c(Cl)c(O)c(C/C=C(\C)CCC=C(C)C)c1O` [Compound 16], for which the “pIC50 Exp.” value in series [5] is given as 9.824. Moreover, the IC50 in series [5] (setting [8]) was 0.15 nM. In the case of `C/C(=C\Cc1c(O)c(Cl)c(C)c(/C=N\O)c1O)CC/C=C(\C)C1CC(=O)C(C)(C)O1` (stereo not shown) [Compound 17], the IC50 in series [5] (setting [9]) was 28 nM. In series [5], the “pIC50 Exp.” value was 7.553.

Take `COC(=O)c1c(C)c(Cl)c(O)c(C/C=C(\C)CCC=C(C)C)c1O` [Compound 18]: the IC50 in series [5] (setting [9]) was 45 nM. The “pIC50 Exp.” value in series [5] is 7.347.

As for `CCCCCCCCc1c(O)c(Cl)c(C)c([N+](=O)[O-])c1O` [Compound 20], the IC50 in series [5] (setting [9]) is 0.45 nM. Moreover, the “pIC50 Exp.” value in series [5] is 9.347. As to `C/C(=C\Cc1c(O)c(Cl)cc(C=O)c1O)CC/C=C(\C)C1CC(=O)C(C)(C)O1` (stereo not shown) [Compound 25], the IC50 in series [5] (setting [9]) was 0.45 nM. For the same compound, in series [5], the “pIC50 Exp.” value was 9.347.

Consider `CC(C)=CCC/C(C)=C/Cc1c(O)c(Cl)cc(C=O)c1O` [Compound 26], for which the IC50 in series [5] (setting [9]) is 0.23 nM. Moreover, the “pIC50 Exp.” value in series [5] is recorded as 9.638. Take `CC(C)=CCC/C(C)=C/Cc1c(O)cc(C)c(C=O)c1O` [Compound 27]: the IC50 in series [5] (setting [9]) is 0.5 nM. In addition, the “pIC50 Exp.” value in series [5] was 9.301. With `CC(C)=CCC/C(C)=C/Cc1c(O)ccc(C=O)c1O` [Compound 28], the IC50 in series [5] (setting [9]) was 38 nM. In series [5], the “pIC50 Exp.” value is reported as 7.420. For the compound `COc1c(Cl)c(C)c(C=O)c(O)c1C/C=C(\C)CC/C=C(\C)C1CC(=O)C(C)(C)O1` (stereo not shown) [Compound 29], the IC50 in series [5] (setting [9]) was 4 nM. For the same compound, the “pIC50 Exp.” value in series [5] is 8.398. In turn, `CC(C)=CCC/C(C)=C/CC/C(C)=C/Cc1c(O)c2ccccc2oc1=O` [Ferulenol] showed an IC50 in series [1] (setting [7]) of 53.1 nM. `CCCCCCCCOC(=O)c1cc(O)c(O)c(O)c1` [Octyl gallate] had an IC50 in series [1] (setting [7]) of 230 nM. Regarding `CCCOC(=O)c1cc(O)c(O)c(O)c1` [Propyl gallate], the IC50 in series [5] (setting [8]) is 200 nM; in series [1] (setting [6]), 1400 nM; in series [1] (external validation set, -log IC50 of values measured by respirometry, read-out: pIC50 Exp (converted)), 1400 nM.
